From ChEMBL document CHEMBL1148038, “Inhibition of Botrytis cinerea by New Sesquiterpenoid Compounds Obtained from the Rearrangement of Isocaryophyllene” (1994)
Activity calls are given as the source filed them. The rule behind the calls is not given here.

Key:
Botrytis cinerea [1] = test: Antifungal activity against Botrytis cinerea by centerpoint incubation disk assay; type: functional, organism-based
Botrytis cinerea [2] = test: Antifungal activity against Botrytis cinerea at 100 ppm for 3 days by centerpoint incubation disk assay; type: functional, organism-based
Botrytis cinerea [3] = test: Antifungal activity against Botrytis cinerea at 17 ppm for 3 days by centerpoint incubation disk assay; type: functional; conditions: 72 h, read-out: IZ
Botrytis cinerea [4] = test: Antifungal activity against Botrytis cinerea at 130 ppm for 5 days by centerpoint incubation disk assay; type: functional; conditions: 120 h, read-out: IZ

Row | Compound | Activity (Botrytis cinerea [1]) | Activity (Botrytis cinerea [2]) | zone of inhibition at 17 ppm (Botrytis cinerea [3]) | zone of inhibition at 130 ppm (Botrytis cinerea [4])
1 | CC1=CC[C@@H]2[C@H]3[C@@H]1CC[C@@]3(C)CC2(C)C | inactive | – | – | –
2 | CC1(C)C[C@@]2(C)CCC[C@]3(C)CC[C@@H]1[C@]32O | – | Active | 20 mm | –
3 | CC1(C)C[C@@]2(O)[C@]3(C)CCC[C@@]2(C)[C@H]1CC3 [ACETYLGINSENOL] | – | Active | – | 6 mm
